Measurements published in patent US5900434A, “Method for inhibiting the production of interleukin-1 or tumor necrosis factor-α by administering acanthoic acid” (Korea Institute of Science and Technology, priority 1994, dated 1999).

What was measured:
NIH3T3 fibroblasts = experiment: Inhibition of proliferation of NIH3T3 fibroblasts (3H-thymidine); type: cell-based; conditions: dialyzate of monocytes/macrophages treated with 10 μg/ml acanthoic acid and silica; 5 days; FIG. 6
Protocol: NIH3T3 fibroblast(ATCC CRL 1658) was cultured in RPMI 1640 medium containing 10% FBS under the same conditions as described above. Acanthoic acid was added in various concentrations to 5×10^5 /ml of cells obtained in the above procedures, and the cells were precultured at 37° C. for 1 hour in 5% CO2 incubator. Then, 1 ml each of silica(100 μg/ml) and RPMI 1640 medium containing 2% FBS were added thereto and the cells were cultured under the same conditions as above for 48 hours. The culture supernatant was collected and centrifuged at 1,500 rpm for 10 minutes to remove the cells and silica. The obtained supernatant was dialyzed against PBS and filtered by 0.2 μm filtration syringe, and the filtrate was stored at -20° C. Fibrosis is caused largely by the proliferation of fibroblasts or by the synthesis of collagen. To confirm the effect of acanthoic acid on the proliferation of fibroblasts, human monocytes and macrophages were treated with 10 μg/ml of acanthoic acid and cultured according to the procedure as described in Reference Example 1 (3). The culture was dialyzed against PBS, and 50 μl of the dialyzate was added to the wells of an incubation plate. […] The amount of ^3 H-thymidine incorporated in the cell was determined by employing liquid scintillation counter(FIG. 6). […]

[1] = system: O2^- production in human monocytes and macrophages; experiment: Production of O2^- in silica-stimulated human monocytes and macrophages; type: cell-based; conditions: 10 μg/ml, 1 hour, 100 μg/ml silica, FIG. 5
Protocol: Normal human peripheral blood was heparin-treated and diluted with equal amount of Hank's balanced salt solution (HBSS: Ca^2+ and Mg^2+ free). The diluted blood was put into a centrifuge tube containing therein Ficoll-Hypaque(Sigma, St. Louis, Mo., U.S.A.) layer having a density of 1.077 piled up on Ficoll-Hypaque layer having a density of 1.119, and then centrifuged at 700×g for 30 minutes to obtain monocytes from the layer between Ficoll-Hypaque layer having a density of 1.077 and serum layer, and neutrophils from the layer between Ficoll-Hypaque layer having a density of 1.077 and that having a density of 1.119. The separated cells were washed twice with 4° C. HBSS(Ca^2+ and Mg^2+ free) and suspended in RPMI 1640 medium(Gibco, Grand Island, N.Y., U.S.A.) containing 10% fetal bovine serum(FBS, Hyclone, Logan, Utah, U.S.A.). The suspensions were added to the wells of 24-well incubation plate(Costar, Cambridge, Mass., U.S.A.) and incubated at 37° C. for 2 hours to obtain monocytes, macrophages and neutrophils. […] The change of color of the supernatant caused by the reduction of cytochrome C was measured at 550 nm by using a UV-Visible spectrophotometer (Kontron Instrument, Milano, Italy). […]

For `C=C[C@@]1(C)CC=C2C(CCC3[C@](C)(C(=O)O)CCC[C@@]23C)C1` (single isomer, unassigned; (-)) [acanthoic acid, (-)-pimara-9(11),15-diene-19-oic acid], the proliferation of fibroblasts (NIH3T3 fibroblasts) was “inhibited significantly” and the “amount of O2^-” value [1] was “decrease significantly”.
